Laboratory results reported in patent US20040121474A1, “Detection and evaluation of chemically-mediated and ligand-mediated t-cell activation using optophoretic analysis” (Genoptix, Inc, priority 2002, published 2004).

Legend:
U937 cells = assay: Escape velocity, effect of camptothecin on U937 cells; assay type: cell-based; settings: camptothecin-treated U937 cells
Description: The objective of this experiment is to test the effects of camptothecin on the escape velocities of U937 cells. Camptothecin inhibits DNA topoisomerase I and induces apoptosis. A control and three concentrations of camptothecin were tested: […]. After adding the camptothecin, the flasks are incubated at 37° C. 5% CO2.
At the timepoints of 4 hours and 6 hours, 200 μl of cells are spun for 5 minutes at 5000 rpm. The cells are then resuspended in […] PBS/1% BSA and […] trypan blue.
Optophoretic techniques have been investigated for their potential to detect the early onset of apoptosis in mammalian cells. U.S. patent application Ser. No. 10,240,611, for example, discloses multiple experiments in which U937 cells were treated with camptothecin and subsequently monitored Optophoretically using measured escape velocities. In one experiment, the escape velocity of the camptothecin-treated cells were measured at 4 and 6 hours after treatment. Noticeable changes in escape velocity were seen as early as 4 hours after treatment (see, e.g., FIG. 34). In that experiment, U937 cells were treated with 4 μg/ml of camptothecin and resuspended in PBS/1% BSA. Escape velocity measurements were taken after 4 and 6 hours. Table 18, reproduced below, includes the results of the escape velocity measurements for the test cells as well as the controls.

CEM/C2 = CEM/C2 cell line obtained from ATCC; cited from earlier work

In the case of `CC[C@@]1(O)C(=O)OCc2c1cc1n(c2=O)Cc2cc3ccccc3nc2-1` [Camptothecin], the “time after treatment at which noticeable changes in escape velocity were seen” value (U937 cells) is listed as ≤ 4 h and the “less sensitive than parental cell line CCRF-CEM” value (CEM/C2) is listed as 970 fold.
